Reference: patent US7928107B2, “Quinazolines useful as modulators of ion channels” (Vertex Pharmaceuticals Incorporated, priority 2004, dated 2011)

Biological target: NaV 1.8 channel (Homo sapiens, UniProt Q9Y5Y9)
Test: Activity against NaV 1.8 channel (optical membrane potential assay)
Format: cell-based
In short: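 FRET membrane-potential assay (coumarin CC2-DMPE donor, oxonol DiSBAC2(3) acceptor plus veratridine) on VIPR; compound added with oxonol for 20–30 min before Na+ add-back stimulation. Activity from background-subtracted 460/580 nm ratio change (baseline 2–7 s, response 15–24 s) relative to tetracaine positive and drug-free negative controls.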

Chain of NaV 1.8 channel (Q9Y5Y9 whole entry): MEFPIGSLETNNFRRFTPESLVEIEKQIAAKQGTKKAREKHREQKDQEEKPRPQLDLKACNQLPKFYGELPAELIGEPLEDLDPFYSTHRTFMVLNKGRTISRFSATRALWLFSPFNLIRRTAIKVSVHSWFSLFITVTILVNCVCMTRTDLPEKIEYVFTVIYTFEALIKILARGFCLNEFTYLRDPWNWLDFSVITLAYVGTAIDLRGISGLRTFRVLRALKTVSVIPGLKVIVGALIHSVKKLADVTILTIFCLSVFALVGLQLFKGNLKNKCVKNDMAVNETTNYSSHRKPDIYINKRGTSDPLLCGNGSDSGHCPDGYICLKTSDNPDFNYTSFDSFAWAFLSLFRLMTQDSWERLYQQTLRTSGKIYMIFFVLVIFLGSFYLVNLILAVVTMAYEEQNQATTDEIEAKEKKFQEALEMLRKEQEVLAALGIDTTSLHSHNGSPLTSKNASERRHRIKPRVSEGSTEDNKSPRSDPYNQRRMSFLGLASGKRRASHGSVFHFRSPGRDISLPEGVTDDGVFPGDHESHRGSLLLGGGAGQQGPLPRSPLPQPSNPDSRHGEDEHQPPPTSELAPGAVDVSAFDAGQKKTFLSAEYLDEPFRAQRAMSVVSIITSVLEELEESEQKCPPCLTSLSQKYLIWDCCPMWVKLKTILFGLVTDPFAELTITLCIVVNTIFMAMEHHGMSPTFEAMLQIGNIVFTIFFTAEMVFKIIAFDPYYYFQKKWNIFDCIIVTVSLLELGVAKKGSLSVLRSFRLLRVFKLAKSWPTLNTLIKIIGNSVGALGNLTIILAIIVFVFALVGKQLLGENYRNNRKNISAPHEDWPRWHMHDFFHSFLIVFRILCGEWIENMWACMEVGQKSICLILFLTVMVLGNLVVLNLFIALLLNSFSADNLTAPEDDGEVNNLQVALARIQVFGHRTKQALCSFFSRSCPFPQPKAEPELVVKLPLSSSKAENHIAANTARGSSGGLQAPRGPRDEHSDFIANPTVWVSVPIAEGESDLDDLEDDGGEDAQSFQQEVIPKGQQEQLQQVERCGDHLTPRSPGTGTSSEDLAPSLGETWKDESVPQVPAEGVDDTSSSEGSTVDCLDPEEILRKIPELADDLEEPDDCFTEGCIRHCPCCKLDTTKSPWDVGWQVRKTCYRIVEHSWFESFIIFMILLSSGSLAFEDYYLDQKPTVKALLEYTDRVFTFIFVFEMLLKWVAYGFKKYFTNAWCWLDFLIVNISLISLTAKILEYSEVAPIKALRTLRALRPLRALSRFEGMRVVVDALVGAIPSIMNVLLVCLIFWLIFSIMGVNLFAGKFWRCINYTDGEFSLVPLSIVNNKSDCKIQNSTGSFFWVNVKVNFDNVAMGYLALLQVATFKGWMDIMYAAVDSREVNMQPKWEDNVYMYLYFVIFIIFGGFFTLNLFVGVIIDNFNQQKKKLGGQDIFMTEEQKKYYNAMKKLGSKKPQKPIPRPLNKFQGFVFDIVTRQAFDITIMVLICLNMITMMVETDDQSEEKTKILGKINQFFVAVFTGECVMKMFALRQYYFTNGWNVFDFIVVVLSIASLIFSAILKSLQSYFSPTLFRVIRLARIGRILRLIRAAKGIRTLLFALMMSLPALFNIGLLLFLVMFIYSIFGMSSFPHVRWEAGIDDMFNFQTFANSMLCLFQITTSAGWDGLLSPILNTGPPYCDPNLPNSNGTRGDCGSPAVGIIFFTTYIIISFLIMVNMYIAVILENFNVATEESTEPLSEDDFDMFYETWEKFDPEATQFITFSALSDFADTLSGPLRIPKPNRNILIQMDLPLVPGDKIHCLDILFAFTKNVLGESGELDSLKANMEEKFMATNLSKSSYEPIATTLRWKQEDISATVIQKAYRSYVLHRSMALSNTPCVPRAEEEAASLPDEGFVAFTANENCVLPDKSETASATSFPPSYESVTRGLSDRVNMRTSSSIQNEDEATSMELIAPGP

Question: How did the IC50 turn out when `CCC(C)(O)C(=O)N1CCN(c2nc(-c3ccccc3O)nc3cc(C)ccc23)CC1` (stereo not shown) [Example 165, 2-Hydroxy-1-(4-(2-(2-hydroxyphenyl)-7-methylquinazolin-4-yl)piperazin-1-yl)-2-methylbutan-1-one] was run?
Answer: The IC50 was 2 to 10 µM.

Question: With `Cc1ccc2c(N3CCN(C(=O)[C@H](O)C(F)(F)F)CC3)nc(-c3ccccc3O)nc2c1` [Example 177, (S)-3,3,3-Trifluoro-2-hydroxy-1-(4-(2-(2-hydroxyphenyl)-7-methylquinazolin-4-yl)piperazin-1-yl)propan-1-one] as the compound, how does the IC50 read?
Answer: The IC50 was 2 to 10 µM.

Question: `Cc1ccc2c(N3CCC(NC(=O)[C@@H]4CCCO4)CC3)nc(-c3ccccc3O)nc2c1` [Example 277] was tested. Which IC50 did it give?
Answer: The IC50 was 2 to 10 µM.

Question: With `Cc1ccc2c(N3CCC(NC(=O)[C@H](O)CC(C)(C)C)CC3)nc(-c3ccccc3O)nc2c1` [Example 232, (2R)-2-Hydroxy-N-(1-(2-(2-hydroxyphenyl)-7-methylquinazolin-4-yl)piperidin-4-yl)-4,4-dimethylpentanamide] as the compound, how does the IC50 read?
Answer: Its IC50 is 2 to 10 µM.

Question: With `Cc1ccc2c(N3CCN(C(=O)C(O)CC(F)(F)F)CC3)nc(-c3ccccc3O)nc2c1` (stereo not shown) [Example 112, 4,4,4-Trifluoro-2-hydroxy-1-(4-(2-(2-hydroxyphenyl)-7-methylquinazolin-4-yl)piperazin-1-yl)butan-1-one] as the compound, how does the IC50 read?
Answer: The IC50 was greater than 10 µM.

Question: `Cc1ccc2c(N3CCN(C(=O)OCc4ccccc4)CC3CO)nc(-c3ccccc3O)nc2c1` (stereo not shown) [Example 157, 3-Hydroxymethyl-4-[2-(2-hydroxy-phenyl)-7-methyl-quinazolin-4-yl]-piperazine-1-carboxylic acid benzyl ester] was tested. Which IC50 did it give?
Answer: Its IC50 is 2 to 10 µM.

Question: How did the IC50 turn out when `Cc1ccc2c(N3CC[C@@H](NC(=O)OCc4ccccc4)C3)nc(-c3ccccc3O)nc2c1` [Example 309, (R)-{1-[2-(2-Hydroxy-phenyl)-7-methyl-quinazolin-4-yl]-pyrrolidin-3-yl}-carbamic acid benzyl ester] was run?
Answer: The IC50 was less than 2 µM.

Question: `Cc1ccc2c(N3CC[C@H](CNC(=O)O[C@@H]4CCOC4)C3)nc(-c3ccccc3O)nc2c1` [Example 306, (R)-Tetrahydrofuran-3-yl ((R)-1-(2-(2-hydroxyphenyl)-7-methylquinazolin-4-yl)pyrrolidin-3-yl)methylcarbamate] was tested. Which IC50 did it give?
Answer: Its IC50 is greater than 10 µM.

Question: With `O=C(NC1CCN(c2nc(-c3ccccc3O)nc3ccc(F)cc23)CC1)[C@H]1CCCO1` [Example 224, (2R)—N-(1-(6-Fluoro-2-(2-hydroxyphenyl)quinazolin-4-yl)piperidin-4-yl)-tetrahydrofuran-2-carboxamide] as the compound, how does the IC50 read?
Answer: Its IC50 is greater than 10 µM.

Question: For `Cc1ccc2c(N3CC[C@@H](NC(=O)c4ccncc4)C3)nc(-c3ccccc3O)nc2c1` [Example 353, N—((R)-1-(2-(2-Hydroxyphenyl)-7-methylquinazolin-4-yl)pyrrolidin-3-yl)isonicotinamide], which IC50 is on record?
Answer: Its IC50 is greater than 10 µM.

Question: With `O=C(N[C@@H]1CCN(c2nc(-c3ccccc3O)nc3ccc(F)cc23)C1)OCC1CCCCO1` (stereo partly drawn) [Example 339, (Tetrahydro-2H-pyran-2-yl)methyl (R)-1-(6-fluoro-2-(2-hydroxyphenyl)quinazolin-4-yl)pyrrolidin-3-ylcarbamate] as the compound, how does the IC50 read?
Answer: Its IC50 is 2 to 10 µM.

Question: With `Cc1ccc2c(N3CCN(C(=O)CCc4ccccn4)CC3)nc(-c3ccccc3O)nc2c1` [Example 133, 1-(4-(2-(2-Hydroxyphenyl)-7-methylquinazolin-4-yl)piperazin-1-yl)-3-(pyridin-2-yl)propan-1-one] as the compound, how does the IC50 read?
Answer: Its IC50 is 2 to 10 µM.

Question: `Cc1ccc2c(N3CCN(C(=O)C(O)CC(C)C)CC3)nc(-c3ccccc3O)nc2c1` (stereo not shown) [Example 180] was tested. Which IC50 did it give?
Answer: The IC50 was 2 to 10 µM.

Question: `Cc1ccc2c(N3CCC(NC(=O)[C@H]4CCCO4)C3)nc(-c3ccccc3O)nc2c1` (stereo in doubt) [Example 303, (2R)-Tetrahydro-N—((S)-1-(2-(2-hydroxyphenyl)-7-methylquinazolin-4-yl)pyrrolidin-3-yl)furan-2-carboxamide] was tested. Which IC50 did it give?
Answer: Its IC50 is 2 to 10 µM.

Question: With `Cc1ccc2c(N3CCC(NC(=O)[C@H](O)CC(C)(C)C)CC3)nc(-c3c(O)cccc3F)nc2c1` [Example 249, (2R)—N-(1-(2-(2-Fluoro-6-hydroxyphenyl)-7-methylquinazolin-4-yl)piperidin-4-yl)-2-hydroxy-4,4-dimethylpentanamide] as the compound, how does the IC50 read?
Answer: The IC50 was 2 to 10 µM.

Question: For `Cc1ccc2c(N3CC[C@@H](NC(=O)OCc4cccnc4)C3)nc(-c3ccccc3O)nc2c1` [Example 319, (Pyridin-3-yl)methyl (R)-1-(2-(2-hydroxyphenyl)-7-methylquinazolin-4-yl)pyrrolidin-3-ylcarbamate], which IC50 is on record?
Answer: Its IC50 is 2 to 10 µM.

Question: `CC(C)(O)C(=O)NC1CCN(c2nc(-c3ccccc3O)nc3ccccc23)CC1` [Example 235, 2-Hydroxy-N-(1-(2-(2-hydroxyphenyl)quinazolin-4-yl)piperidin-4-yl)-2-methylpropanamide] was tested. Which IC50 did it give?
Answer: Its IC50 is 2 to 10 µM.

Question: `Cc1ccc2c(N3CCC(NC(=O)CCc4ccccn4)CC3)nc(-c3ccccc3O)nc2c1` [Example 223, N-(1-(2-(2-Hydroxyphenyl)-7-methylquinazolin-4-yl)piperidin-4-yl)-3-(pyridin-2-yl)propanamide] was tested. Which IC50 did it give?
Answer: The IC50 was greater than 10 µM.

Question: `Cc1ccc2c(N3CCC(NC(=O)O[C@@H]4CCOC4)CC3)nc(-c3ccccc3O)nc2c1` [Example 272] was tested. Which IC50 did it give?
Answer: Its IC50 is 2 to 10 µM.

Question: For `Cc1ccc2c(N3CC[C@@H](NC(=O)CCc4ccccn4)C3)nc(-c3ccccc3O)nc2c1` [Example 318, N—((R)-1-(2-(2-Hydroxyphenyl)-7-methylquinazolin-4-yl)pyrrolidin-3-yl)-3-(pyridin-2-yl)propanamide], which IC50 is on record?
Answer: Its IC50 is greater than 10 µM.

Question: How did the IC50 turn out when `Cc1ccc2c(N3CC[C@@H](CNC(=O)OCC(C)C)C3)nc(-c3ccccc3O)nc2c1` [Example 365, Isobutyl ((S)-1-(2-(2-hydroxyphenyl)-7-methylquinazolin-4-yl)pyrrolidin-3-yl)methylcarbamate] was run?
Answer: Its IC50 is less than 2 µM.

Question: For `O=C(OCc1ccncc1)N1CCN(c2nc(-c3ccccc3O)nc3ccccc23)CC1` [Example 116, (Pyridin-4-yl)methyl 4-(2-(2-hydroxyphenyl)quinazolin-4-yl)piperazine-1-carboxylate], which IC50 is on record?
Answer: The IC50 was 2 to 10 µM.

Question: For `Cc1ccc2c(N3CCC[C@@H](CNC(=O)O[C@H]4CO[C@@H]5OCC[C@@H]54)C3)nc(-c3ccccc3O)nc2c1` [Example 281], which IC50 is on record?
Answer: The IC50 was 2 to 10 µM.

Question: `Cc1ccc2c(N3CC[C@@H](CNC(=O)OC(C)C)C3)nc(-c3ccccc3O)nc2c1` [Example 368, Isopropyl ((S)-1-(2-(2-hydroxyphenyl)-7-methylquinazolin-4-yl)pyrrolidin-3-yl)methylcarbamate] was tested. Which IC50 did it give?
Answer: The IC50 was 2 to 10 µM.

Question: With `CCCC(O)C(=O)NC1CCN(c2nc(-c3ccccc3O)nc3cc(C)ccc23)CC1` (stereo not shown) [Example 247, 2-Hydroxy-N-(1-(2-(2-hydroxyphenyl)-7-methylquinazolin-4-yl)piperidin-4-yl)pentanamide] as the compound, how does the IC50 read?
Answer: Its IC50 is greater than 10 µM.

Question: Which IC50 does the source give for `Cc1ccc2c(N3CCC[C@H](NC(=O)O[C@H]4CCOC4)C3)nc(-c3ccccc3O)nc2c1` [Example 204, (S)-Tetrahydrofuran-3-yl (S)-1-(2-(2-hydroxyphenyl)-7-methylquinazolin-4-yl)piperidin-3-ylcarbamate] here?
Answer: The IC50 was greater than 10 µM.

Question: How did the IC50 turn out when `Cc1ccc2c(N3CCN(C(=O)C(C)(O)C(F)(F)F)CC3)nc(-c3ccccc3O)nc2c1` (stereo not shown) [Example 110, 2-(Trifluoromethyl)-2-hydroxy-1-(4-(2-(2-hydroxyphenyl)-7-methylquinazolin-4-yl)piperazin-1-yl)propan-1-one] was run?
Answer: Its IC50 is greater than 10 µM.

Question: How did the IC50 turn out when `O=C(O[C@@H]1CCOC1)N1CCN(c2nc(-c3ccccc3O)nc3ccc(F)cc23)CC1` [Example 148, (R)-Tetrahydrofuran-3-yl 4-(6-fluoro-2-(2-hydroxyphenyl)quinazolin-4-yl)piperazine-1-carboxylate] was run?
Answer: The IC50 was 2 to 10 µM.

Question: With `O=C(CC1CCOCC1)N[C@@H]1CCN(c2nc(-c3ccccc3O)nc3ccc(F)cc23)C1` [Example 338, N—((R)-1-(6-Fluoro-2-(2-hydroxyphenyl)quinazolin-4-yl)pyrrolidin-3-yl)-2-(tetrahydro-2H-pyran-4-yl)acetamide] as the compound, how does the IC50 read?
Answer: The IC50 was greater than 10 µM.

Question: How did the IC50 turn out when `Cc1ccc2c(N3CCN(C(=O)OCc4ccncc4)CC3)nc(-c3ccccc3O)nc2c1` [Example 152, (Pyridin-4-yl)methyl 4-(2-(2-hydroxyphenyl)-7-methylquinazolin-4-yl)piperazine-1-carboxylate] was run?
Answer: Its IC50 is greater than 10 µM.

Question: How did the IC50 turn out when `Cc1ccc2c(N3CC[C@@H](NC(=O)CC4CCOCC4)C3)nc(-c3ccccc3O)nc2c1` [Example 317, 2-(Tetrahydro-2H-pyran-4-yl)-N—((R)-1-(2-(2-hydroxyphenyl)-7-methylquinazolin-4-yl)pyrrolidin-3-yl)acetamide] was run?
Answer: Its IC50 is 2 to 10 µM.

Question: `O=C(N[C@@H]1CCN(c2nc(-c3ccccc3O)nc3ccc(F)cc23)C1)O[C@@H]1CCOC1` [Example 337, (R)-Tetrahydrofuran-3-yl (R)-1-(6-fluoro-2-(2-hydroxyphenyl)quinazolin-4-yl)pyrrolidin-3-ylcarbamate] was tested. Which IC50 did it give?
Answer: The IC50 was 2 to 10 µM.

Question: Which IC50 does the source give for `Cc1ccc2c(N3CCN(C(=O)OCC4CCOC4)CC3)nc(-c3ccccc3O)nc2c1` (stereo not shown) [Example 184] here?
Answer: Its IC50 is 2 to 10 µM.

Question: `Cc1ccc2c(N3CCC(C(=O)NCC4CCCO4)CC3)nc(-c3ccccc3O)nc2c1` (stereo not shown) [Example 271] was tested. Which IC50 did it give?
Answer: The IC50 was greater than 10 µM.

Question: How did the IC50 turn out when `Cc1ccc2c(N3CCC[C@@H](CNC(=O)C4CC4)C3)nc(-c3ccccc3O)nc2c1` [Example 226, N—(((S)-1-(2-(2-Hydroxyphenyl)-7-methylquinazolin-4-yl)piperidin-3-yl)methyl)cyclopropanecarboxamide] was run?
Answer: The IC50 was greater than 10 µM.

Question: For `Cc1ccc2c(N3CCN(C(=O)C(O)CC(C)C)CC3)nc(-c3ccccc3O)nc2c1` (stereo not shown) [Example 270], which IC50 is on record?
Answer: The IC50 was 2 to 10 µM.

Question: For `Cc1ccc2c(N3CCC(NC(=O)C(O)CC(C)C)CC3)nc(-c3ccccc3O)nc2c1` (stereo not shown) [Example 265], which IC50 is on record?
Answer: Its IC50 is greater than 10 µM.

Question: How did the IC50 turn out when `Cc1ccc2c(N3CCC(NC(=O)OCC4CCOC4)CC3)nc(-c3ccccc3O)nc2c1` (stereo not shown) [Example 275] was run?
Answer: The IC50 was 2 to 10 µM.

Question: Which IC50 does the source give for `Cc1ccc2c(N3CC[C@@H](CNC(=O)C4CC4)C3)nc(-c3ccccc3O)nc2c1` [Example 311, N—(((S)-1-(2-(2-Hydroxyphenyl)-7-methylquinazolin-4-yl)pyrrolidin-3-yl)methyl)cyclopropanecarboxamide] here?
Answer: Its IC50 is less than 2 µM.

Question: With `COCCOC(=O)NC[C@@H]1CCN(c2nc(-c3ccccc3O)nc3cc(C)ccc23)C1` [Example 366, 2-Methoxyethyl ((S)-1-(2-(2-hydroxyphenyl)-7-methylquinazolin-4-yl)pyrrolidin-3-yl)methylcarbamate] as the compound, how does the IC50 read?
Answer: The IC50 was 2 to 10 µM.
